According to patent US12070036B2, “Methods and compositions comprising nematode signalling compounds” (PHERONYM, INC., priority 2018, dated 2024):

System: RKN J2
Experiment: RKN J2 dispersal away from the pheromone application site
Type: in vivo, Meloidogyne spp.
Conditions: for activity as a repellent (in words): single ascarosides vs presented together
Method: FIG. 2. RKN J2 responds to pheromones purified from S. carpocapsae growth medium within 2 hours. The 57% MeOH extraction only contains one pheromone, ascr #10, which is also secreted by RKN. […] The 73% MeOH extraction includes both ascr #10 and ascr #18. Both of these pheromones are released by RKN J2. We can already see a synergy and recognition and 15% more J2 left the pheromone application spot due to recognition of the pheromone signals. […] The figure is representative of the 2 independent experiments repeated in time and each experiment has 6 independent replications.
FIG. 3. RKN J2 response to pheromones extracted from S. feltiae growth medium within 2 h of exposure. Control has only water. Pheromones resuspended in water. The experiment has 5 independent replications.
We extracted the pheromones with 58% and 73% Methyl alcohol using S. carpocapsae insect host cadavers, the growth medium for S. carpocapsae. Then the extracts were dried and re-suspended in MILLIQ water. Centrifuged at 6000 r.c.f. to remove insoluble material and then dried using a speed vac. […] This particular fraction only included one ascaroside, ascr #10, common between RKN and S. carpocapsae. […] The 73% MeOH extract contained two common pheromones, ascr #10 and ascr #18, between RKN and S. carpocapsae. The two pheromones together caused 15% more RKN J2 to move away from the application site compared to water control.
We tested this with one more Steinernema species growth medium. We extracted the pheromones using 70% MeOH from the S. feltiae growth medium (insect host cadavers). This particular extraction contains the two common ascarosides, ascr #10 and ascr #18, between RKN and Steinernema species.
Since ascr #10 and […] are the only common ascarosides between Steinernema and RKN species, we looked at other species that release ascarosides that RKN J2 release.

Row | Structure (SMILES) | RKN J2 response to pheromones (in words) (RKN J2, within 2 hours, vs water control) | activity as a repellent (in words)
1 | C[C@H](CCCCCCC(=O)O)O[C@@H]1O[C@@H](C)[C@H](O)C[C@H]1O [ascr #10] | did not elicit any response | not active
2 | C[C@H](CCCCCCCCC(=O)O)O[C@@H]1O[C@@H](C)[C@H](O)C[C@H]1O [ascr #18] | – | not active
